In publication PMC3492795 (International Journal of Biological Sciences, 2012):

Molecular target: T1, LXRβ (Homo sapiens, UniProt P55055)
T1 sequence (P55055 222-460 limits assumed): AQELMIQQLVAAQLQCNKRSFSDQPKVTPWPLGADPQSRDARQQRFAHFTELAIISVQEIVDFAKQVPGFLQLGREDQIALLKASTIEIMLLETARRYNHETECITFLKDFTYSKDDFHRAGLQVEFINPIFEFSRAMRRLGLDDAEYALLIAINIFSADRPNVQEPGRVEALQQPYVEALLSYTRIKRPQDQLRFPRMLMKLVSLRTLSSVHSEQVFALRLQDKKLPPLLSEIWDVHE
Assay: SPR
Assay type: binding

Kd: 32 µM
Compound: O=C(O)c1cc(O)c2c(c1)C(=O)c1cccc(O)c1C2=O [RH, 4,5-dihydroxyanthraquinone-2-carboxylic acid]
